Where a SMILES comes first, the peptide text is derived from it. The star is where a group is joined. NH(6-Ac-2-naphthyl) = CC(=O)c1ccc2cc(N*)ccc2c1
What was measured:
[1] = test system: NIH/3T3, BV2 and HeLa cells; experiment: XTT cytotoxicity assay; format: cell-based, mouse, human; details: XTT assay, 12, 30, 60, 120 μM, 24 h
Description: Supplementary Figure 4. Cytotoxicity of two-photon enzymatic probes (12, 30, 60, 120 μM) in mammalian cells (NIH/3T3, BV2 and HeLa) after incubation for 24 h, as determined by XTT assay. […]
Detection of caspase activities in mammalian cells and tissues
Cell culture. The mouse embryonic fibroblast cell line (NIH/3T3), mouse microglial cell line (BV2) and human epithelial carcinoma cell line (HeLa) used in our experiments were cultured in Dulbecco’s Modified Eagle's Medium (DMEM) supplemented with 10% (for NIH/3T3 and HeLa) or 5% (for BV2) fetal bovine serum (FBS), 100.0 mg/L streptomycin and 100 IU/mL penicillin in a humidified atmosphere of 5% CO2 at 37 °C.
XTT assay. The cytotoxicity of our probes was determined by using the XTT colorimetric cell proliferation kit (Roche) following manufacturer’s guidelines. Briefly, NIH/3T3, BV2 and HeLa cells were seeded in 20~30% confluency (since they will reach >50% confluency within 24 h) into 96-well plates and incubated overnight before the addition of probes with concentrations of 12 μM, 30 μM, 60 μM and 120 μM, respectively. Probes were applied from DMSO stocks whereby DMSO never exceeded 1% in the final solution. The same volume of DMSO was used as a negative control; and the same volume of STS (200 nM) was used as a positive control. After a total treatment time of 24 h, proliferation was assayed using the XTT assay (Supplementary Fig. 4). […]

caspase-1 = target: T1, caspase-1 (Homo sapiens, UniProt P29466); experiment: S/N ratio of caspase-1 probes in BV2 lysates spiked with caspase-1; format: biochemical; details: probe 6 μM, 25 μg BV2 lysates spiked with caspase-1, 37 °C, 2 h; among the four caspase-1 probes
T1 construct: purchased Merck
T1 sequence (P29466 120-297 limits assumed): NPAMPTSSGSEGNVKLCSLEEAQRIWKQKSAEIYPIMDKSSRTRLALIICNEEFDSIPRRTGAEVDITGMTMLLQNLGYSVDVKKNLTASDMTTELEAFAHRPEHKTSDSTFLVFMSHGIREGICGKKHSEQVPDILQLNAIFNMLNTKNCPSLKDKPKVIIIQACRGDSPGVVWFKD
T1 sequence (P29466 317-404 limits assumed): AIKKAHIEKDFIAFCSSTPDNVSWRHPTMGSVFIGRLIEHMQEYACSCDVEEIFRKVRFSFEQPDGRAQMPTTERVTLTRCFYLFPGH
Description: Figure 2 Photophysical and enzymatic properties of caspase probes. (a) Photophysical and kinetic properties of probes and free dyes. All measurements were taken in 50 mM HEPES, 50 mM NaCl, 0.1% CHAPS, 10 mM EDTA, 5% glycerol, 10 mM DTT, at pH = 7.2. (b) Time-dependent ratiometric fluorescence changes of C1RB (6 μM) incubated with caspase-1 (10 nM) over 2 h at room temperature. Data were obtained by plotting the normalized ratio of fluorescence intensity at 500 nm (F500 nm) over that at 450 nm (F450 nm). (Inset) time-dependent fluorescence emission spectra with λex = 350 nm. (c) Time-dependent “Turn-ON” effect of C1FS (6 μM) incubated with caspase-1 (10 nM) measured and normalized at 460 nm (F460 nm) over 2 h at room temperature, with the corresponding fluorescence emission spectra (inset). λex = 350 nm. (d) Normalized S/N ratio of each of the four caspase-1 probes (6 μM) incubated with 25 μg of BV2 lysates spiked with different concentrations of caspase-1 (37 °C, t = 2 h). S and N represent the fluorescence emission intensity of each reaction solution in the presence (S) and absence (N) of caspase-1. […] (−) no caspase; (caspase-1) 1.5 nM; (caspase-3) 0.8 nM; (caspase-6) 0.2 μM; (caspase-8) 10 nM; (caspase-9) 0.5 μM. […] Normalized, relative fluorescence (RFU) values were obtained after 2-h incubation at room temperature. […]

[2] = not given; remark: listed apart in the source
[3] = not given; remark: listed apart in the source
[4] = test system: caspase-1 in primary cortical neurons; experiment: TPFM of caspase-1 activation in glucose-deprived primary cortical neurons; format: cell-based, mouse; details: 50 μM, added 1 h prior to the probe (t = 7 h during GD)
Description: NC: neuron cells incubated in normal neurobasal medium.
All two-photon images were taken on a Leica TCS SP5X Confocal Microscope System. […] Dissociated neuron-enriched cell cultures of cerebral cortex were established from day 16 C57BL/6 mouse embryos, as described[53]. Primary neurons were cultured in the neurobasal medium (Gibco) with 2% B27 and 0.5 mM GlutaMAX. Experiments were performed in 7–9 day-old cultures. For glucose-deprivation studies, glucose-free neurobasal medium was used (with other components fixed). The cultured neurons were incubated in glucose-free medium for 8 h, while control cells were incubated in normal neurobasal medium.
Caspase-1-like activities detected in primary cortical neurons of C57BL/6 mouse underwent
glucose-deprivation (GD) treatment.
neurons grown in normal culture medium and incubated with C1RB/C1FS for 1 h (NC). Panels 2/5: primary neuron
underwent GD induction for 8 h and incubated with C1RB/C1FS for 1 h.
(50 μM) was added 1 h earlier (t = 7 h) than C1RB/C1FS.
TPFM imaging of caspase activities in primary cortical neurons and fresh tissues.
Dissociated neuron-enriched cell cultures of cerebral cortex were established from day 16 C57BL/6 mouse embryos, as described.14 Primary neurons were cultured in the neurobasal medium (Gibco) with 2% B27 and 0.5 mM GlutaMAX. Experiments were performed in 7-9 day-old cultures. […]

Which cytotoxicity [1] does the source give for `CC(=O)N[C@@H](Cc1c[nH]c2ccccc12)C(=O)N[C@@H](CCC(=O)O)C(=O)N[C@@H](Cc1c[nH]cn1)C(=O)N[C@@H](CC(=O)O)C(=O)Nc1ccc2cc(C(C)=O)ccc2c1` [C1RB, Ac-WEHD-AAN] (Ac-WEHD-{NH(6-Ac-2-naphthyl)}) here?
The cytotoxicity was “minimally cytotoxic”.

What about the “detection limit of caspase-1 activity” value (caspase-1) of the same molecule?
Its value is “lowest detection limit”.

And the λem (emission maximum)?
The λem (emission maximum) was 448 nm.

What about the δΦ (two-photon action cross-section) [2] of the same molecule?
Its δΦ (two-photon action cross-section) is 2.3 GM.

What about the λex (absorption/excitation maximum) [3] of the same molecule?
The λex (absorption/excitation maximum) was 316 nm.

For `CCO[C@@H]1OC(=O)C[C@@H]1NC(=O)[C@@H]1CCCN2C(=O)CC[C@H](NC(=O)c3nccc4ccccc34)C(=O)N12` [Pralnacasan], which “effect of inhibitor on C1RB/C1FS fluorescence signals in glucose-deprived neurons” value [4] is on record?
Its value is “inhibited”.
